From paper PMC6120666 (The EMBO Journal, 2018)

Assays:
[1] = test system: U2OS/NOD2, THP1, RAW264.7 and HEKBlue cells; assay: CellTiter-Glo viability assay; format: cell-based; settings: U2OS/NOD2, THP1, RAW264.7, HEKBlue; 24 h; up to 1 µM
Procedure: Cell viability was determined using CellTiter‐Glo assay (Promega). […] Kinase activities were determined using ADPGlo assay (Promega). • Structure of the active conformation of RIPK2 kinase domain in complex with AMP‐PNP (PDB ID: 5AR3). Figure depicts locations of the adenine and deep pockets. […] Key residues discussed in the text are shown as sticks (Lys/Glu Glu‐in bond—bottom left, catalytic Asp residues (Asp146/Asp164)—bottom right, R‐spine—right). P‐loop of CSLP18 structure is shown in yellow. Structured segment of activation segment (AS) observed in active conformation structures is shown in red. • Structure of RIPK2 kinase domain (gray ribbons) in complex with CSLP18 (orange) (PDB ID 6FU5). Sticks are shown for residues in the vicinity of the cavity surrounding the key inhibitor position R1. A 2Fo‐Fc electron density map contoured at 1 sigma is shown for the inhibitor and the residues lining the key region around inhibitor R^1 position. • Molecular docking model of RIPK2 kinase domain in complex with CSLP37 (yellow) based on RIPK2/CSLP18 structure (Fig 3D). […]
GST-BIR2-XIAP as indicated. Intensity quantification of SPOTs was performed using ImageJ software (Schneider et al., 2012). […]
for cell death) or vehicle for 24h. Viability was determined using the CellTiter-Glo® luminescent cell […]

[2] = biological target: T1, cIAP1 BIR2 - RIPK2 interaction (Homo sapiens, UniProt O43353); assay: GST-BIR2-cIAP1 pulldown of RIPK2; format: binding; settings: U2OS/NOD2 lysates; CSLP37 1.8 μM, CSLP43 2 μM
T1 construct: Pulldown of RIPK2 from U2OS/NOD2 cell lysates with recombinant; endogenous in cells; host or cells: U2OS/NOD2 cell lysate (RIPK2); E. coli BL21 (GST-BIR2-cIAP1)
Procedure: Figure EV4 Inhibition of RIPK2 ubiquitination and cIAP1 binding by CSLP inhibitors • A Coomassie Blue staining of His Trap and gel filtration purified His6‐GST‐XIAP‐BIR2 WT and D214S recombinant proteins at two different concentrations as indicated. • B Pulldown of RIPK2 from U2OS/NOD2 cell lysates with recombinant GST‐BIR2‐cIAP1 in the presence of CSLP inhibitors. […] Purified material and lysates were analyzed by immunoblotting. • C, D Purification of Ub‐conjugates from U2OS/NOD2 cells (C) or THP‐1 cells (D) after treatment with L18‐MDP (200 ng/ml, 1 h) and CSLP compounds as indicated. Purified material and lysates were analyzed by immunoblotting. […]
For co‐immunoprecipitation of HA‐XIAP with RIPK2, transfected and treated cells were lysed in TBS buffer containing 0.5% NP‐40, cOmplete and PhosSTOP inhibitors (Roche) and the lysate was cleared by centrifugation. The lysates were incubated with anti‐HA‐agarose overnight, washed 3× with lysis buffer, and analyzed by immunoblotting. […] Bound material was washed 3× with lysis buffer or PBS, eluted with 15 mM Glutathione in PBS, and analyzed by immunoblotting. […] The bound material was eluted and analyzed as described above. Ubiquitin conjugates were purified from treated cells using GST‐1xUBA^ubq ubiquitin affinity reagent (termed TUBE pulldown) and analyzed by immunoblotting as described (Fiil et al, 2013). […]

T1 sequence (O43353 whole entry): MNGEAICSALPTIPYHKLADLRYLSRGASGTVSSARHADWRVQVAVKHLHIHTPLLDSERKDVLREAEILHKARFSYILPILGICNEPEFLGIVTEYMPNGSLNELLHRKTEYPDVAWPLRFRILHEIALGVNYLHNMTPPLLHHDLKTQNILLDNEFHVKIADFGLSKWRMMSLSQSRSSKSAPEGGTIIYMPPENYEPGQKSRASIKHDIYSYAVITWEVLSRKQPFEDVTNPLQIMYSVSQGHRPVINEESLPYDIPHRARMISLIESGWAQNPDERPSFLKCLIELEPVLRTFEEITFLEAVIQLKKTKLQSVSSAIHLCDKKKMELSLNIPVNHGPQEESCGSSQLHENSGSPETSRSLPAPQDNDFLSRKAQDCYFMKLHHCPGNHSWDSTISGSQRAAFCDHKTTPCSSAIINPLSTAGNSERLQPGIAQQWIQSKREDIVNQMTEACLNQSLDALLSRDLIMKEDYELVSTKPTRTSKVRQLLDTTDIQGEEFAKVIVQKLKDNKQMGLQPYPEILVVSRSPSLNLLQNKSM

Row | SMILES | toxicity in the cell lines used [1] | interaction between GST-BIR2-cIAP1 and RIPK2 in cell lysates [2]
1 | CCCS(=O)(=O)Nc1cc(-c2cc(-c3ccc(N4CCNCC4)cc3)cnc2N)cc(F)c1OC [CSLP37] | did not have measurable toxicity | both antagonized
2 | CCCS(=O)(=O)Nc1cc(-c2cc(-c3ccc(N4CCNCC4)cc3)cnc2N)cc(OC)c1OC [CSLP43] | did not have measurable toxicity | both antagonized
